In this experiment the test system is pyramidal cells of hippocampal slice. The experiment in a line: Penicilline-induced "epileptic" hippocampal slice preparation. It counts as cell-based. To be noted: concentration of 6 μM. The protocol: The GABAB antagonists of the present invention interact at the GABAB receptor with IC50 values starting from about 10^-7 M (moles/liter) in rat brain cortex membranes. […] The antagonism against baclofen has also been shown in in vitro electrophysiological models, such as the penicilline-induced "epileptic" hippocampal slice preparation, where baclofen, at a concentration of 6 μM inhibits "epileptic"-like discharges of pyramidal cells. The compounds of the invention antagonise the effects of baclofen at concentrations from approximately 10 to approximately 100 μM. In vivo, antagonism has been shown by ionophoresis of baclofen on rat cerebral cortex, and systemic application of antagonists in doses of 10-100 mg/kg. The muscle relaxant effects of baclofen measured in the rotarod model are also antagonized at doses of about 30 mg/kg ip.

`NCC(CC(=O)O)c1ccc(Cl)cc1` (stereo not shown) [baclofen]: the “inhibition of "epileptic"-like discharges of pyramidal cells” value is “inhibits”.
